According to patent US11992499B2, “Quinoline derivatives for use in the treatment of inflammation diseases” (ABIVAX, priority 2018, dated 2024):
“Also recorded” adds a separate entry of the source. Like-named read-outs stand apart in the source and are kept apart here.

Legend:
[1] = tested on: STAM model of non-alcoholic steatohepatitis; format: in vivo; details: for Liver weight (mean ± SD) / Liver-to-body weight ratio (mean ± SD): n = 8
Text: To prepare dosing solution, Compound A and B were weighed and suspended in Vehicle which was composed of 20% of Vehicle-A1 and 80% of Vehicle-A2. Vehicle-A1 was composed of 0.5% (w/v) Carboxymethyl cellulose (CMC) 400-800 centipoises in water for injection+2.5% (w/v) Tween 80. Vehicle-A2 was composed of 0.5% (w/v) Carboxymethyl cellulose (CMC) 400-800 centipoises in water for injection. Telmisartan (Micardis®) was purchased from Boehringer Ingelheim GmbH (Germany) and dissolved in pure water.
NASH was induced in 48 male mice by a single subcutaneous injection of 200 μg streptozotocin (STZ, Sigma-Aldrich, USA) solution 2 days after birth and feeding with high fat diet (HFD, 57 kcal % fat, Cat #HFD32, CLEA Japan, Inc., Japan) after 4 weeks of age.
Compound A and B, and Telmisartan were administered orally in a volume of 10 mL/kg.
Compound A was administered at 3 dose levels of 10, 20 and 40 mg/kg once daily from 6 to 9 weeks of age. Compound B was administered at a dose of 40 mg/kg once daily from 6 to 9 weeks of age. Telmisartan was administered at a dose of 10 mg/kg once daily from 6 to 9 weeks of age.
C57BL/6 mice (14-day-pregnant female) were obtained from Japan SLC, Inc. (Japan). All animals used in the study were housed and cared for in accordance with the Japanese Pharmacological Society Guidelines for Animal Use.
Group 1: Vehicle Eight NASH mice were orally administered vehicle [20% of Vehicle-A1 and 80% of Vehicle-A2] in a volume of 10 mL/kg once daily from 6 to 9 weeks of age.
Eight NASH mice were orally administered vehicle supplemented with Compound A at a dose of 10 mg/kg once daily from 6 to 9 weeks of age.
Eight NASH mice were orally administered vehicle supplemented with Compound A at a dose of 20 mg/kg once daily from 6 to 9 weeks of age.
Eight NASH mice were orally administered vehicle supplemented with Compound A at a dose of 40 mg/kg once daily from 6 to 9 weeks of age.
Eight NASH mice were orally administered vehicle supplemented with Compound B at a dose of 40 mg/kg once daily from 6 to 9 weeks of age.
Eight NASH mice were orally administered pure water supplemented with Telmisartan at a dose of 10 mg/kg once daily from 6 to 9 weeks of age.
The viability, clinical signs and behavior were monitored daily. Body weight was recorded before the treatment. […] The animals were sacrificed at 9 weeks of age by exsanguination through direct cardiac puncture under isoflurane anesthesia (Pfizer Inc.).

[2] = tested on: STAM model of non-alcoholic steatohepatitis; assay: STAM model of NASH: Sirius red staining, fibrosis area; format: in vivo, mice; details: for Sirius red-positive area (fibrosis area, mean ± SD): n = 8
Method: NASH was induced in 48 male mice by a single subcutaneous injection of 200 μg streptozotocin (STZ, Sigma-Aldrich, USA) solution 2 days after birth and feeding with high fat diet (HFD, 57 kcal % fat, Cat #HFD32, CLEA Japan, Inc., Japan) after 4 weeks of age. Compound A was administered at 3 dose levels of 10, 20 and 40 mg/kg once daily from 6 to 9 weeks of age. Compound B was administered at a dose of 40 mg/kg once daily from 6 to 9 weeks of age. Telmisartan was administered at a dose of 10 mg/kg once daily from 6 to 9 weeks of age. For HE staining, sections were cut from paraffin blocks of liver tissue prefixed in Bouin's solution and stained with Lillie-Mayer's Hematoxylin (Muto Pure Chemicals Co., Ltd., Japan) and eosin solution (FUJIFILM Wako Pure Chemical Corporation). NAFLD Activity score (NAS) was calculated according to the criteria of Kleiner (Kleiner D E. et al., Hepatology, 2005; 41:1313). To visualize collagen deposition, Bouin's fixed liver sections were stained using picro-Sirius red solution (Waldeck, Germany). For quantitative analysis of fibrosis area, bright field images of Sirius red-stained sections were captured around the central vein using a digital camera (DFC295; Leica, Germany) at 200-fold magnification, and the positive areas in 5 fields/section were measured using ImageJ software (National Institute of Health, USA).

[3] = 10 mg/kg PO QD (Compound A low, Telmisartan groups)
[4] = 10 mg/kg PO QD, 6-9 wks of age (Compound A low, Telmisartan groups)
[5] = 20 mg/kg PO QD (Compound A middle group)
[6] = 20 mg/kg PO QD, 6-9 wks of age (Compound A middle group)
[7] = 40 mg/kg PO QD (Compound A high, Compound B groups)
[8] = 40 mg/kg PO QD, 6-9 wks of age (Compound A high, Compound B groups)

With `FC(F)(F)Oc1ccc(Nc2ccc3cccc(Cl)c3n2)cc1` [Compound A, 8-Chloro-N-(4-(trifluoromethoxy)phenyl)quinolin-2-amine] the “Mean liver weight compared with the Vehicle group” value [1, 3] was “significant increase”, the “Mean liver-to-body weight ratio compared with the Vehicle group” value (“Mean liver-to-body weight ratio” below) [1, 3] was “tended to increase” and the “Liver weight (mean ± SD)” value [1, 4] was 1662 ± 254 mg. The “Liver-to-body weight ratio (mean ± SD)” value [1, 4] was 8.4 ± 1.8%, the “Mean liver weight compared with the Vehicle group” value [1, 5] was “no significant difference” and the “Mean liver-to-body weight ratio” value [1, 5] was “tended to increase”. For the same compound, the “Liver weight (mean ± SD)” value [1, 6] was 1500 ± 77 mg, the “Liver-to-body weight ratio (mean ± SD)” value [1, 6] was 7.6 ± 0.4% and the “Mean liver weight compared with the Vehicle group” value [1, 7] was “tended to increase”. For the same compound, the “Mean liver-to-body weight ratio” value [1, 7] was “tended to increase”, the “Liver weight (mean ± SD)” value [1, 8] was 1654 ± 145 mg and the “Liver-to-body weight ratio (mean ± SD)” value [1, 8] was 8.5 ± 1.1%. For the same compound, the “Sirius red-positive area (fibrosis area, mean ± SD)” value [2, 4] was 0.70 ± 0.11%, the “Fibrosis area (Sirius red-positive area) compared with the Vehicle group” value [2, 5] was “tended to decrease; also recorded: decreasing trends” and the “Sirius red-positive area (fibrosis area, mean ± SD)” value [2, 6] was 0.65 ± 0.13%. For the same compound, the “Sirius red-positive area (fibrosis area, mean ± SD)” value [2, 8] was 0.68 ± 0.14% and the “Pathological deposition of collagen in the liver (Sirius red staining)” value ([2]; summary statement, dose not stated) was “decreasing trend”.
